Test [1] concerns MCF7. Nature of the test: Cytotoxicity against human MCF7 cells assessed as inhibition of cell viability at 30 uM after 48 hrs by SRB assay. The test is classed as functional. To be noted: MCF7, 48 h. On the technique in general: In SRB staining, fixed cells bind dye roughly in proportion to their protein.
For another test, the system named is HT-29. Nature of the test: Cytotoxicity against human HT-29 cells assessed as inhibition of cell viability after 48 hrs by SRB assay. The test is classed as functional, cell-based. Particulars: HT-29, 48 h.
In the next test the test system is A549. Put plainly: Cytotoxicity against human A549 cells assessed as inhibition of cell viability after 48 hrs by SRB assay. Particulars: A549, 48 h. Type of test: functional, cell-based.
The test system of another test is HepG2. Put plainly: Cytotoxicity against human HepG2 cells assessed as inhibition of cell viability after 48 hrs by SRB assay. Type of test: functional, cell-based. To be noted: HepG2, 48 h.
Test [2] concerns MCF7. Nature of the test: Cytotoxicity against human MCF7 cells assessed as inhibition of cell viability after 48 hrs by SRB assay. Type of test: functional, cell-based. Particulars: MCF7, 48 h.
The subject of the next test is HeLa. Put plainly: Cytotoxicity against human HeLa cells assessed as inhibition of cell viability after 48 hrs by SRB assay. Type of test: functional, cell-based.
The nature of test [3]: Cytotoxicity against human PANC1 cells assessed as inhibition of cell viability after 48 hrs by SRB assay. The test is classed as functional, cell-based. To be noted: PANC-1, 48 h.
The subject of the next test is SK-OV-3. Put plainly: Cytotoxicity against human SKOV3 cells assessed as inhibition of cell viability after 48 hrs by SRB assay. Type of test: functional, cell-based. Particulars: SK-OV-3, 48 h.

Drawing on ChEMBL document CHEMBL3596147, “Synthesis and antitumor activity of 5-(5-halogenated-2-oxo-1H-pyrrolo[2,3-b]pyridin-(3Z)-ylidenemethyl)-2,4-dimethyl-1H-pyrrole-3-carboxamides” (Bioorg Med Chem Lett, 2015), this text covers inhibition and IC50 for 28 compounds.

Take `Cc1[nH]c(/C=C2\C(=O)Nc3ncc(F)cc32)c(C)c1C(=O)NCCOc1ccccc1`: the inhibition at 30 µM in the test on MCF7 [1] was determined as 2.8%.

`Cc1[nH]c(/C=C2\C(=O)Nc3ncc(Br)cc32)c(C)c1C(=O)NCCN1CCOCC1`: the inhibition at 30 µM in the test with MCF7 [1] was 6%.

On to `Cc1[nH]c(/C=C2\C(=O)Nc3ncc(Cl)cc32)c(C)c1C(=O)NCCN1CCCC1`, for which the IC50 worked out at 12.5 µM in the test with HT-29; 11.4 µM in the test on A549; 7.87 µM in the test on HepG2; 15.6 µM in the test on MCF7 [2]; 24.5 µM with HeLa; 10.3 µM in test [3]. Moreover, in the test with SK-OV-3, the IC50 was 16.1 µM. Moreover, in the test on MCF7 [1], the inhibition at 30 µM was determined as 91.3%.

As to `Cc1[nH]c(/C=C2\C(=O)Nc3ncc(F)cc32)c(C)c1C(=O)O`, in the test with MCF7 [1], the inhibition at 30 µM stood at 20.5%.

For the compound `Cc1[nH]c(/C=C2\C(=O)Nc3ncc(Br)cc32)c(C)c1C(=O)NC1CC1`, in the test on MCF7 [1], the inhibition at 30 µM came to 5.5%.

For the compound `Cc1[nH]c(/C=C2\C(=O)Nc3ncc(Cl)cc32)c(C)c1C(=O)NC1CC1`, the inhibition at 30 µM with MCF7 [1] is 6.2%.

As for `Cc1[nH]c(/C=C2\C(=O)Nc3ncc(F)cc32)c(C)c1C(=O)NCCOCc1ccccc1`, in the test with MCF7 [1], the inhibition at 30 µM worked out at 4.1%.

As for `Cc1[nH]c(/C=C2\C(=O)Nc3ncc(Br)cc32)c(C)c1C(=O)O`, the inhibition at 30 µM in the test with MCF7 [1] is 19.6%.

For the compound `Cc1[nH]c(/C=C2\C(=O)Nc3ncc(Cl)cc32)c(C)c1C(=O)NCC1CCN(C)CC1`, the IC50 in the test on HT-29 is 5.57 µM; with A549 it was 16.9 µM; in the test with HepG2, 12.7 µM; in the test with MCF7 [2] it was more than 30 µM; in the test with HeLa it was more than 30 µM; in test [3] it was more than 30 µM. The IC50 in the test on SK-OV-3 stood at 16.4 µM. The inhibition at 30 µM in the test with MCF7 [1] is 88.4%.

With `CCN(CC)CCNC(=O)c1c(C)[nH]c(/C=C2\C(=O)Nc3ccc(F)cc32)c1C` [SUNITINIB], the IC50 in the test with HT-29 was 4.7 µM; in the test on A549, 7.93 µM; in the test with HepG2 it was 16.1 µM; with MCF7 [2] it was 25.4 µM; with HeLa, more than 30 µM; in test [3], 14.9 µM. Besides, the IC50 in the test with SK-OV-3 came out at 9.21 µM. In addition, the inhibition at 30 µM in the test with MCF7 [1] was 94%.

On to `Cc1[nH]c(/C=C2\C(=O)Nc3ncc(Cl)cc32)c(C)c1C(=O)O`, for which the inhibition at 30 µM in the test on MCF7 [1] is 15.8%.

In the case of `CCOC(=O)c1c(C)[nH]c(/C=C2\C(=O)Nc3ncc(Cl)cc32)c1C`, the inhibition at 30 µM with MCF7 [1] was 54.8%.

In the case of `Cc1[nH]c(/C=C2\C(=O)Nc3ncc(F)cc32)c(C)c1C(=O)NCC(C)O` (configuration not stated), in the test on MCF7 [1], the inhibition at 30 µM came out at 0%.

With `CCN(CC)CCNC(=O)c1c(C)[nH]c(/C=C2\C(=O)Nc3ncc(Br)cc32)c1C`, the IC50 worked out at 3.99 µM with HT-29; 6.46 µM in the test on A549; 12 µM in the test on HepG2; 27.8 µM with MCF7 [2]; 26.7 µM in the test with HeLa; 15.6 µM in test [3]. The IC50 with SK-OV-3 was found to be 11.8 µM. The inhibition at 30 µM in the test with MCF7 [1] was 89.7%.

For `Cc1[nH]c(/C=C2\C(=O)Nc3ncc(F)cc32)c(C)c1C(=O)NCCN1CCCC1`, the inhibition at 30 µM in the test on MCF7 [1] stood at 37.5%.

Take `Cc1[nH]c(/C=C2\C(=O)Nc3ncc(F)cc32)c(C)c1C(=O)NCCN(C)C`: the inhibition at 30 µM in the test on MCF7 [1] worked out at 61.1%.

With `CCOC(=O)c1c(C)[nH]c(/C=C2\C(=O)Nc3ncc(F)cc32)c1C`, the inhibition at 30 µM with MCF7 [1] was determined as 60.4%.

Consider `Cc1[nH]c(/C=C2\C(=O)Nc3ncc(F)cc32)c(C)c1C(=O)NCC1CCN(C)CC1`, for which the IC50 is 5.72 µM in the test with HT-29, 21.2 µM in the test with HepG2, more than 30 µM in the test with MCF7 [2] and more than 30 µM in test [3]. Also, the inhibition at 30 µM in the test with MCF7 [1] was 78%.

Turning to `CCOC(=O)c1c(C)[nH]c(/C=C2\C(=O)Nc3ncc(Br)cc32)c1C`, in the test with MCF7 [1], the inhibition at 30 µM worked out at 6.3%.

Consider `Cc1[nH]c(/C=C2\C(=O)Nc3ncc(Br)cc32)c(C)c1C(=O)NCC1CCN(C)CC1`, for which the IC50 with HT-29 was 5.57 µM; in the test on A549, 15.2 µM; in the test with HepG2, 21.8 µM; in the test on MCF7 [2], more than 30 µM; with HeLa it was more than 30 µM; in test [3] it was 26.9 µM. Besides, the IC50 in the test on SK-OV-3 was found to be 19.2 µM. Further, in the test on MCF7 [1], the inhibition at 30 µM was 82.8%.

With `Cc1[nH]c(/C=C2\C(=O)Nc3ncc(F)cc32)c(C)c1C(=O)NC1CC1`, the inhibition at 30 µM in the test on MCF7 [1] was determined as 6.3%.

As for `CCN(CC)CCNC(=O)c1c(C)[nH]c(/C=C2\C(=O)Nc3ncc(F)cc32)c1C`, the IC50 in the test on HT-29 is 6.27 µM; in the test on HepG2, 15 µM; in the test on MCF7 [2], more than 30 µM; in test [3], more than 30 µM. For the same compound, the inhibition at 30 µM with MCF7 [1] worked out at 70.7%.

Turning to `Cc1[nH]c(/C=C2\C(=O)Nc3ncc(F)cc32)c(C)c1C(=O)NCCN1CCOCC1`, the inhibition at 30 µM in the test on MCF7 [1] came to 15.6%.

On to `CCN(CC)CCNC(=O)c1c(C)[nH]c(/C=C2\C(=O)Nc3ncc(Cl)cc32)c1C`, for which the IC50 with HT-29 was determined as 6.93 µM; with A549, 10.3 µM; in the test with HepG2, 12.4 µM; in the test on MCF7 [2], 26.3 µM; in the test on HeLa, 29.4 µM; in test [3], 14 µM. Also, the concentration for half-maximal inhibition (IC50) in the test with SK-OV-3 stood at 8.28 µM. Also, in the test with MCF7 [1], the inhibition at 30 µM stood at 88.9%.

Turning to `Cc1[nH]c(/C=C2\C(=O)Nc3ncc(Cl)cc32)c(C)c1C(=O)NCCN(C)C`, in the test on MCF7 [1], the inhibition at 30 µM stood at 45.7%.

As to `Cc1[nH]c(/C=C2\C(=O)Nc3ncc(Cl)cc32)c(C)c1C(=O)NCCN1CCOCC1`, the inhibition at 30 µM in the test with MCF7 [1] worked out at 6%.

With `Cc1[nH]c(/C=C2\C(=O)Nc3ncc(Br)cc32)c(C)c1C(=O)NCCN1CCCC1`, the IC50 in the test with HT-29 came out at 4.49 µM; with A549, 4.82 µM; in the test with HepG2, 9.36 µM; with MCF7 [2], 15.1 µM; in the test on HeLa, 15.4 µM; in test [3] it was 6.2 µM. In the test with SK-OV-3, the IC50 came out at 5.15 µM. Besides, the inhibition at 30 µM in the test on MCF7 [1] was found to be 86.9%.

As to `Cc1[nH]c(/C=C2\C(=O)Nc3ncc(Br)cc32)c(C)c1C(=O)NCCN(C)C`, the IC50 was 5.04 µM with HT-29; 4.57 µM in the test on A549; 6.57 µM in the test on HepG2; 14.1 µM in the test with MCF7 [2]; 17.9 µM in the test with HeLa; 11.6 µM in test [3]. The IC50 in the test on SK-OV-3 came to 4.98 µM. In the test on MCF7 [1], the inhibition at 30 µM came to 79.4%.

Usually inhibition stands for the change of the read-out against control, counted positive when it falls. Broadly, the IC50 is the concentration that gives 50% inhibition.
